Test results: article PMC3357532, “Intracellular Loop 2 Peptides of the Human 5HT1a Receptor are Differential Activators of Gi” (International Journal of Peptides, 2012)
Where two headings read alike, the source gives them in different places. Blank lines part the entries; values can stand above or below the molecule they belong to. Where no end group is shown, it is not given here.

What was measured:
H5-HT1aR [1] = molecular target: T1, H5-HT1aR (Homo sapiens, UniProt P08908); experiment: Inhibition of agonist [3H]8-OH-DPAT binding (measure of receptor-G-protein coupling)
T1 construct: expressed in transfected cells; host or cells: CHO cells (Chinese hamster ovary), crude membranes
T1 sequence (P08908 1-422): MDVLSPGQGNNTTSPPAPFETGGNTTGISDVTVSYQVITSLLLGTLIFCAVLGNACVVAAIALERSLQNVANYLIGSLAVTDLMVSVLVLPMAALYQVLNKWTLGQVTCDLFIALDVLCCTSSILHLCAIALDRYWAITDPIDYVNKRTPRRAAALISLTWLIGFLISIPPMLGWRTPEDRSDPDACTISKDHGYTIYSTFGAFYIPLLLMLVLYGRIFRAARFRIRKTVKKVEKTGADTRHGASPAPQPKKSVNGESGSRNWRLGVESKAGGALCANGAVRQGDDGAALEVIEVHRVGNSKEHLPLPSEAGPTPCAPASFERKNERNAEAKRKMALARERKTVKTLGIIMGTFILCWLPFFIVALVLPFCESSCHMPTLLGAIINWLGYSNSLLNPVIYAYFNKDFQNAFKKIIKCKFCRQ
Description: Cells were trypsinized and centrifuged at low speed in ice-cold medium. The pellet was resuspended in ice-cold Earle's Balanced Salt Solution followed by centrifugation. Cells were resuspended in 10 mL of ice-cold binding buffer (50 mM Tris, 4 mM CaCl2, 10 μM pargyline, and pH 7.4), homogenized with Teflon-glass, and centrifuged for 450,000 g-min. at 4°C. For a crude membrane preparation, the pellet was resuspended in 30 mL of ice-cold binding buffer, homogenized on Teflon-glass and then by Polytron (setting 4) for 5 seconds, and stored on ice and assayed within the next 1.5 hours.
Binding of the agonist [3H]8-OH-DPAT ([3H]8-hydroxy-2-(di-n-propylamino)tetralin) to H5-HT1aR followed well-characterized protocols. Radioligands were purchased from New England Nuclear (NEN), Boston, MA, and 1 mL reaction mixtures, in triplicate, were incubated for 30 min. in a 30°C shaker. The 1 mL mixture was 700 μL of receptor preparation; 100 μL of binding buffer (for total binding) or 10 μM 5-HT (for nonspecific binding), 100 μL of the tritiated agent (concentration of 0.5 nM [3H] 8-OH-DPAT), and 100 μL of peptide or binding buffer in the case of controls.
Reactions were stopped by addition of 4 mL of ice-cold 50 mM Tris buffer, pH 7.4, and vacuum filtration on glass fiber filters (Whatman GF/B). Filters were rinsed twice in 5 mL of ice-cold Tris buffer, dried, and counted in 5 mL of Ecoscint (National Diagnostics) liquid scintillation fluid in a Beckman LS 6500. Homogenates were assayed for protein to maintain a nominal value of 50 μg protein per filter. All tubes were run in triplicate.

[2] = test system: CHO cells expressing the human 5HT1aR; experiment: Forskolin-stimulated cAMP production (EIA); type: cell-based; details: for [cAMP] (SEM), relative to FSK-stimulated control: 30 uM FSK, 100 uM IBMX, 20 min 37°C, control = 100; for FSK stimulated cAMP (%): Figure 5, IBMX, FSK control = 100
Description: CHO cells were cultured to confluency in 12- or 24-well plates. Medium was aspirated, and the cells were rinsed twice in warm, serum-free F-12 medium. Cells were incubated for 20 min. at 37°C in 0.5 mls of serum-free F-12 medium containing 100 uM isobutylmethylxanthine (IBMX) and the following substances (final concs.) alone or in combination (see Figures 3 and 5): 30 μM forskolin (FSK; for all treatments); 1 μM 5-HT; peptide concentrations as noted in figure legends. Reactions were stopped by aspiration of medium and addition of 0.5 mL of 100 mM HCl. After 10 min., well contents were removed and centrifuged at 4000 rpm. Supernatants were diluted in 100 mM HCl, and cAMP was quantified directly in a microplate format by enzyme immunoassay (EIA) with a kit from Assay Designs (Ann Arbor). Triplicate-independent samples were assayed.

[3] = test system: Gi in H5-HT1aR membranes from transfected CHO cells; experiment: [35S]GTPγS incorporation into Gi; type: biochemical, human; details: for GTP Incorp. (SEM), γ-[35S]-GTP into Gi, percent of control: peptide 30 uM (Figure 2), basal control = 100, 30 min 30°C
Description: H5-HT1aR membranes from transfected CHO cells were incubated with 5-HT (0.1 μM) and/or peptide concentrations as noted in figure legends (see Figures 2 and 4) and the following incubation mixture: 20 mM HEPES buffer, pH 7.4, 5 mM MgCl2, 1 mM EDTA, 1 mM DTT, 100 mM NaCl, 100 uM GDP, 10 μM pargyline, 0.2 mM ascorbate, and 0.1 nM [35S]GTPγS [53, 58]. Mixtures were incubated for 30 min. at 30°C, and were terminated by dilution in cold buffer. The mixture was filtered on GF/C filters, rinsed twice in buffer, dried and counted by liquid scintillation. All values reported in are for specific binding (total nonspecific) of triplicates. Nonspecific binding was determined in the presence of cold γ-S-GTP (10 uM). Negative control is the above mixture minus test drug or 5HT. Positive control contains 5HT.

[4] = test system: CHO cells expressing the human 5HT1aR; details: cited from earlier work
From the text: (§1) Table 2 ic2 Peptide mimic effect on [3H]8-OH-DPAT binding. All binding inhibition values are percent of control agonist (ag.) bound. The upper portion of the table is for peptides nearer the C-terminus, including P11 from Thiagaraj et al., 2007 [53]. These peptides decreased the specific high affinity binding of 5HT1aR agonist [^3H]-8-OH-DPAT by 50% at the given concentration. The lower portion | column: [cAMP] (SEM) || Table 3 ic3 Peptide mimic coupling and signal transduction data. Summary of data generated for all ic3 experiments with P12 and P13. P1 is included as a reference, from Hayataka et al., 1998 [49]. Nominal values for control agonist binding were 400 fmoles/mg protein. | column: % Inhibition of FSK-stimulated cAMP

H5-HT1aR [5] = molecular target: T1, H5-HT1aR; details: cited from earlier work
From the text: as §1, with “Conc. (uM); % cont. ag, bound,” for “[cAMP]”, “Agonist (%) inhibition” for “% Inhibition of FSK-stimulated cAMP”

[6] = test system: Gi in H5-HT1aR membranes from transfected CHO cells; details: cited from earlier work
From the text: as §1, with “GTP Incorp.” for “[cAMP]”, “[35S]-γ-S-GTP incorporation% above conro” for “% Inhibition of FSK-stimulated cAMP”

[7] = molecular target: Gi (G protein coupled to the human 5HT1a receptor in CHO cells) (Chinese hamster (endogenous in CHO))
[8] = molecular target: Gi (G protein coupled to the human 5HT1a receptor in CHO cells) (Chinese hamster (endogenous in CHO)); remark: listed apart in the source
[9] = CHO H5-HT1aR membranes, 0.5 nM [3H]8-OH-DPAT, 30 min 30°C, shallow curves, read-out: Conc. (uM) at which specific high affinity [3H]8-OH-DPAT binding is decreased by 50% (IC50)

Molecule: VKKVEKTGAD [Peptide P13]
IC50 (H5-HT1aR [1]; [3H]8-OH-DPAT, if 50% is listed, the concentration is the IC50, read-out: Agonist (%) inhibition: concentration giving 50% (IC50)): 15 µM
inhibition (H5-HT1aR [1]; peptide 15 uM): 50%

Molecule: DPIDYVNKRT [Peptide P25, ic2 loop peptide mimic of H5HT1aR]
[cAMP] (SEM), relative to FSK-stimulated control ([2]; peptide 30 uM (Figure 3)): 64 (3) %
GTP Incorp. (SEM), γ-[35S]-GTP into Gi, percent of control [3]: 126 (10) %

Molecule: YVNKRTPRPR [Peptide P27, ic2 loop peptide mimic of H5HT1aR, C-terminal end]
[cAMP] (SEM), relative to FSK-stimulated control ([2]; peptide 30 uM (Figure 3)): 132 (6) %
GTP Incorp. (SEM), γ-[35S]-GTP into Gi, percent of control [3]: 130 (7) %

inhibition (H5-HT1aR [1]; peptide 30 uM, maximum inhibition possible with the highest soluble concentration): 28%
Molecule: KTVKKVEKTG [Peptide P12, ic3 peptide mimic of H5HT1aR]
Change in intracellular cAMP concentration (in words) ([2]; FSK-stimulated, peptide 30 uM (Figure 5)): not altered
FSK stimulated cAMP (%) ([2]; peptide alone 30 uM): 100 ± 6%
inhibition ([2]; peptide 30 uM, read-out: % Inhibition of FSK-stimulated cAMP): 0%
[35S]-γ-S-GTP incorporation% above conro ([3]; peptide 30 uM): 24%

Molecule: IFRAARFRIRKTVKK [P1*]
inhibition ([4]; peptide 10 uM, ref Hayataka et al., 1998 [49], read-out: % Inhibition of FSK-stimulated cAMP): 10%
IC50 (H5-HT1aR [5]; [3H]8-OH-DPAT, ref Hayataka et al., 1998 [49], read-out: Agonist (%) inhibition: concentration giving 50% (IC50)): 3 µM
inhibition (H5-HT1aR [5]; peptide 3 uM, ref Hayataka et al., 1998 [49], read-out: Agonist (%) inhibition): 50%
[35S]-γ-S-GTP incorporation% above conro ([6]; peptide 1 uM, ref Hayataka et al., 1998 [49]): 30%

Molecule: ITDPIDYVNK [Peptide P24]
[cAMP] (SEM), relative to FSK-stimulated control ([2]; peptide 30 uM (Figure 3)): 45 (7) %
GTP Incorp. (SEM), γ-[35S]-GTP into Gi, percent of control [3]: 146 (17) %

Molecule: LDRYWAITDP [Peptide P21]
IC50 (H5-HT1aR [1]; [9]): 15 µM

Molecule: WAITDPIDYV [Peptide P23]
IC50 (H5-HT1aR [1]; [9]): 30 µM

Molecule: RYWAITDPID [Peptide P22]
IC50 (H5-HT1aR [1]; [9]): 16 µM

Molecule: IDYVNKRTPR [Peptide P26, ic2 loop peptide mimic of H5HT1aR]
[cAMP] (SEM), relative to FSK-stimulated control ([2]; peptide 30 uM (Figure 3)): 100 (5) %
GTP Incorp. (SEM), γ-[35S]-GTP into Gi, percent of control [3]: 111 (9) %

Molecule: NCCc1c[nH]c2ccc(O)cc12 [Peptide 5HT, 5-hydroxytryptamine, reference compound]
[cAMP] (SEM), relative to FSK-stimulated control ([2]; 1 uM 5-HT): 21 (4) %
FSK stimulated cAMP (%) ([2]; 5HT alone (1 uM per method)): 24 ± 1%

Molecule: IALDRYWAITD [Peptide P11, ic2 N-terminal (TM3/ic2) peptide mimic of H5HT1aR from a previous study, Thiagaraj et al., 2007]
[cAMP] (SEM), relative to FSK-stimulated control ([4]; peptide 30 uM (Figure 3), 30 uM FSK, IBMX, ref Thiagaraj et al., 2007 [53], SEM): 87 (8) %
IC50 (H5-HT1aR [5]; CHO H5-HT1aR membranes, ref Thiagaraj et al., 2007 [53], read-out: Conc. (uM) at which specific high affinity [3H]8-OH-DPAT binding is decreased by 50% (IC50)): 7 µM
GTP Incorp. (SEM), γ-[35S]-GTP into Gi, percent of control ([6]; peptide 30 uM (Figure 2), ref Thiagaraj et al., 2007 [53], SEM): 100 (3) %

IC50 of agonist inhibition: peptide concentration at which specific [3H]8-OH-DPAT binding to H5-HT1aR in CHO membranes falls to about 50% of control (uncoupling of receptor from G protein) [7]: 30 µM
B1: P23, ic2 loop peptide mimic of the human 5HT1a receptor (peptide)
peptide: WAITDPIDYV

IC50 of agonist inhibition: peptide concentration at which specific [3H]8-OH-DPAT binding to H5-HT1aR in CHO membranes falls to about 50% of control (uncoupling of receptor from G protein) [7]: 16 µM
B2: P22, ic2 loop peptide mimic of the human 5HT1a receptor (peptide)
peptide: RYWAITDPID

% inhibition of FSK-stimulated cAMP at 30 uM peptide, CHO cells expressing H5HT1aR (negative: cAMP increased) [8]: -24 % inhibition
IC50 of agonist inhibition: peptide concentration giving 50% inhibition of [3H]8-OH-DPAT binding to H5-HT1aR in CHO membranes (uncoupling of receptor from G protein) [8]: 15 µM
[35S]-γ-S-GTP incorporation into Gi, % above control, at 30 uM peptide, CHO H5HT1aR membranes (% above control) [8]: 12
B3: P13, ic3 loop peptide mimic of the human 5HT1a receptor (peptide)
peptide: VKKVEKTGAD

IC50 of agonist inhibition: peptide concentration at which specific [3H]8-OH-DPAT binding to H5-HT1aR in CHO membranes falls to about 50% of control (uncoupling of receptor from G protein) [7]: 15 µM
B4: P21, ic2 loop peptide mimic of the human 5HT1a receptor (peptide)
peptide: LDRYWAITDP

% inhibition of FSK-stimulated cAMP at 30 uM peptide, CHO cells expressing H5HT1aR [8]: -0 % inhibition
[35S]-γ-S-GTP incorporation into Gi, % above control, at 30 uM peptide, CHO H5HT1aR membranes (% above control) [8]: 24
agonist ([3H]8-OH-DPAT) % inhibition at 30 uM peptide, H5-HT1aR in CHO membranes (maximum inhibition possible with the highest soluble concentration; uncoupling of receptor from G protein) [8]: 28 % inhibition
B5: P12, ic3 loop peptide mimic of the human 5HT1a receptor (peptide)
peptide: KTVKKVEKTG
